The values that follow come from paper PMC10263210, “Design, Synthesis and Biological Evaluation of Novel MDH Inhibitors Targeting Tumor Microenvironment” (Pharmaceuticals, 2023).

The target in one data set is T1, human recombinant MDH1 (Homo sapiens, UniProt P40925).
T1 construct: purchased BioVision
T1 sequence (P40925 1-334): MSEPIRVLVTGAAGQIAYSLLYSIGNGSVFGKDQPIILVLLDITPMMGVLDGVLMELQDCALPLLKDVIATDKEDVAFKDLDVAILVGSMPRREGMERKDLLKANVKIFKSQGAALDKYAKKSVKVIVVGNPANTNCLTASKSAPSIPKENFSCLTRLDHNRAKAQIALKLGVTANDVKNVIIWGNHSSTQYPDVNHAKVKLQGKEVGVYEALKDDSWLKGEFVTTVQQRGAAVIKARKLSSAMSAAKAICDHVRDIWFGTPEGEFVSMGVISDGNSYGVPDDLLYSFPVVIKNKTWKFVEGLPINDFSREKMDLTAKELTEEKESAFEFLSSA
As to the kind of experiment: MDH1 enzyme activity assay (oxaloacetate-dependent NADH oxidation). In kind it is biochemical. The conditions noted are these: means of three experiments. The source says:
(§1) To develop the dual inhibitors of MDH1 and MDH2, we screened the newly synthesized LW1497 derivatives using MDH and MDH2 enzyme assays. LW1497 was used as the positive control for the MDH1/2 dual inhibitor. We evaluated the ability of the synthesized compounds to inhibit human recombinant MDH1 and MDH2 enzymatic activity using an oxaloacetate-dependent NADH oxidation assay (Table 1, Table 2, Table 3, Table 4, Table 5 and Table 6). Our SAR optimization strategy focused on four different parts of LW1497: (A) the introduction of various groups at different positions on the amide phenyl ring; (B) the replacement of the 3-(4-(2,4,4-trimethylpentan-2-yl) alkyl chain; (C) the alteration of the amide portion; and (D) the modification of the oxypropanamide linker portion (Figure 1).
(§2) The activities of MDH1 and MDH2 were confirmed using an oxaloacetate-dependent NADH oxidation assay. Experiments were conducted using 100 mM of potassium phosphate buffer (pH 7.4) and human recombinant MDH1 (BioVision) and MDH2 (BioVision), and the results were obtained by measuring the absorbance at 340 nm. Enzyme activity was measured using a plate reader at a wavelength of 340 nm.

The target in the next data set is T2, human recombinant MDH2 (Homo sapiens, UniProt P40926).
T2 construct: purchased BioVision
T2 sequence (P40926 25-338): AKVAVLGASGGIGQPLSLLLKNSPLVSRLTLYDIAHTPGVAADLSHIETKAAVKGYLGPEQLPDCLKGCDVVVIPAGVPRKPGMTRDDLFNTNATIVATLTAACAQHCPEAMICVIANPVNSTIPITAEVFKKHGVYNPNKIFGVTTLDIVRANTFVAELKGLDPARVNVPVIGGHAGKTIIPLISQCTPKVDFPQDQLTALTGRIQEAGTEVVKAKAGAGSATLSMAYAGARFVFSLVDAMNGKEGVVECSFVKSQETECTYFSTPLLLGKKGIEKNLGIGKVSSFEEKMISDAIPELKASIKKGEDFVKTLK
As to the kind of experiment: MDH2 enzyme activity assay (oxaloacetate-dependent NADH oxidation). It counts as biochemical. As to conditions: means of three experiments.
Excerpt: as §1, §2

A further data set deals with A549 lung cancer cells. In words: Cell growth inhibition assay (SRB), A549. It counts as cell-based. The conditions noted are these: Homo sapiens, means of three experiments, read-out: Cell Viability IC50 A549. The procedure:
(§3) At the same time, we investigated the effect of the compounds on the growth inhibition of A549 and H460 lung cancer cells bearing KRAS and LKB1 mutations. […] Compound 50 containing a piperidine linker was selected for further analysis.
(§4) Human lung carcinoma A549 cells were cultured in Dulbecco’s modified Eagle’s medium and H460 cells were cultured in RPMI 1640 medium containing 10% fetal bovine serum and 1% penicillin/streptomycin at 37 °C with a 5% Co2 hypoxia experimental condition. The cells were grown in the hypoxia chamber (1% O2, 94% N2, and 5% Co2 in a multigas incubator)
(§5) Cell growth inhibition was assessed using sulforhodamine B (SRB) as described in [34]. The cells were fixed with 10% formalin (Sigma-Aldrich) and stained with 0.4% SRB. Protein-bound dye was dissolved in 10 mM of Tris, and its optical density was measured at 540 nm.

For a further data set, the system named is H460 lung cancer cells. In words: Cell growth inhibition assay (SRB), H460. It counts as cell-based. As to conditions: Homo sapiens, NCI-H460, means of three experiments, read-out: Cell Viability IC50 H460. How it is done:
as §3, §4, §5

Consider `COc1cccc(NC(=O)CCOc2ccc(C(C)(C)CC(C)(C)C)cc2)c1` [Compound 5a, N-(3-Methoxyphenyl)-3-(4-(2,4,4-trimethylpentan-2-yl)phenoxy)propanamide], for which the melting point (usually the temperature, or range, at which the solid turns liquid) lay within 97 to 99 °C. The 50% inhibitory concentration (IC50) – broadly, the point on the concentration scale where inhibition reaches its midpoint – on human recombinant MDH1 is 6.18 ± 0.74 µM. For the same compound, on human recombinant MDH2, the half-maximal inhibitory concentration (IC50) amounted to 1.5 ± 0.01 µM. Also, in the data set with A549 lung cancer cells, the IC50 was 11.1 ± 0.77 µM. Further, the half-maximal inhibitory concentration (IC50) with H460 lung cancer cells is 8.83 ± 0.34 µM.
The like results for `CC(C)(C)CC(C)(C)c1ccc(OCCC(=O)Nc2cccc(C#N)c2)cc1` [Compound 5b, N-(3-Cyanophenyl)-3-(4-(2,4,4-trimethylpentan-2-yl)phenoxy)propanamide] were, in that order, 112 to 114 °C, 6.96 ± 0.12 µM, 2 ± 0.05 µM, 5.25 ± 0.21 µM and 5.84 ± 0.74 µM.
Taken in the same sequence, the figures for `CC(C)(C)CC(C)(C)c1ccc(OCCC(=O)Nc2cccc(C(F)(F)F)c2)cc1` [Compound 5c, N-(3-(Trifluoromethyl)phenyl)-3-(4-(2,4,4-trimethylpentan-2-yl)phenoxy)propanamide] were 88 to 90 °C, 8.35 ± 2.86 µM, 1.04 µM, 6.47 ± 0.06 µM and 5.68 ± 0.23 µM.
`CC(C)(C)CC(C)(C)c1ccc(OCCC(=O)Nc2cccc(OC(F)(F)F)c2)cc1` [Compound 5d, N-(3-(Trifluoromethoxy)phenyl)-3-(4-(2,4,4-trimethylpentan-2-yl)phenoxy)propanamide]: the half-inhibitory concentration (IC50) at human recombinant MDH1 was determined as 0.94 ± 0.05 µM; on human recombinant MDH2, 1.24 ± 0.13 µM; with A549 lung cancer cells it was 6.42 ± 0.06 µM; in the data set on H460 lung cancer cells, 6.81 ± 0.04 µM.
On to `CC(C)(C)CC(C)(C)c1ccc(OCCC(=O)Nc2ccccc2OC(F)(F)F)cc1` [Compound 5e, N-(2-(Trifluoromethoxy)phenyl)-3-(4-(2,4,4-trimethylpentan-2-yl)phenoxy)propanamide], for which the IC50 on human recombinant MDH1 was 3.14 ± 0.14 µM; on human recombinant MDH2, 3.09 ± 0.2 µM; in the data set with A549 lung cancer cells, more than 10 µM; in the data set with H460 lung cancer cells, more than 10 µM.
Turning to `CC(C)(C)CC(C)(C)c1ccc(OCCC(=O)Nc2ccc(OC(F)(F)F)cc2)cc1` [Compound 5f, N-(4-(Trifluoromethoxy)phenyl)-3-(4-(2,4,4-trimethylpentan-2-yl)phenoxy)propanamide], the IC50 was 3.45 ± 0.07 µM at human recombinant MDH1, 2.12 ± 0.21 µM at human recombinant MDH2, 5.97 ± 0.71 µM with A549 lung cancer cells and 3.77 ± 0.02 µM in the data set with H460 lung cancer cells.
Take `CC(C)(C)CCc1ccc(OCCC(=O)Nc2cccc(OC(F)(F)F)c2)cc1` [Compound 14]: the half-maximal inhibitory concentration (IC50) at human recombinant MDH1 was determined as 3.05 ± 0.29 µM; at human recombinant MDH2 it was 1.53 ± 0.08 µM; with A549 lung cancer cells it was 14.44 ± 0.1 µM; with H460 lung cancer cells, 12.8 ± 1.36 µM.
Consider `CC(C)(C)CNc1ccc(OCCC(=O)Nc2cccc(OC(F)(F)F)c2)cc1` [Compound 21, 3-(4-(Neopentylamino)phenoxy)-N-(3-(trifluoromethoxy)phenyl)propanamide], for which the half-inhibitory concentration (IC50) was more than 5 µM at human recombinant MDH1, more than 5 µM on human recombinant MDH2, more than 10 µM with A549 lung cancer cells and more than 10 µM in the data set on H460 lung cancer cells.
In the case of `CN(CC(C)(C)C)c1ccc(OCCC(=O)Nc2cccc(OC(F)(F)F)c2)cc1` [Compound 22, 3-(4-(Methyl(neopentyl)amino)phenoxy)-N-(3-(trifluoromethoxy)phenyl)propanamide], the 50% inhibitory concentration (IC50) at human recombinant MDH1 is more than 5 µM; at human recombinant MDH2 it was 3.13 ± 0.29 µM; in the data set with A549 lung cancer cells, more than 10 µM; in the data set with H460 lung cancer cells, more than 10 µM.
With `CC(C)(O)CC(C)(C)c1ccc(OCCC(=O)Nc2cccc(OC(F)(F)F)c2)cc1` [Compound 30, 3-(4-(4-Hydroxy-2,4-dimethylpentan-2-yl)phenoxy)-N-(3-(trifluoromethoxy)phenyl)propanamide], the 50% inhibitory concentration (IC50) at human recombinant MDH1 was more than 5 µM; on human recombinant MDH2 it was more than 5 µM; in the data set with A549 lung cancer cells, 8.28 ± 0.76 µM.
Regarding `O=C(CCOc1ccc(-c2ccccc2)cc1)Nc1cccc(OC(F)(F)F)c1` [Compound 35a, 3-([1,1′-Biphenyl]-4-yloxy)-N-(3-(trifluoromethoxy)phenyl)propanamide], the melting point lay in the range of 132 to 134 °C. Besides, the IC50 at human recombinant MDH1 is 0.78 ± 0.08 µM. For the same compound, the 50% inhibitory concentration (IC50) at human recombinant MDH2 came out at 1.38 ± 0.59 µM. For the same compound, in the data set with A549 lung cancer cells, the IC50 was more than 10 µM. The IC50 in the data set on H460 lung cancer cells is more than 10 µM.
Compound `O=C(CCOc1ccc(-c2ccc(F)cc2)cc1)Nc1cccc(OC(F)(F)F)c1` [Compound 35b, 3-((4′-Fluoro-[1,1′-biphenyl]-4-yl)oxy)-N-(3-(trifluoromethoxy)phenyl)propanamide] registered a melting point of 101 to 103 °C. For the same compound, the IC50 on human recombinant MDH1 was more than 5 µM. For the same compound, the half-inhibitory concentration (IC50) on human recombinant MDH2 was more than 5 µM. In addition, in the data set with A549 lung cancer cells, the IC50 was more than 10 µM. The IC50 in the data set with H460 lung cancer cells is more than 10 µM.
On to `O=C(CCOc1ccc2ccccc2c1)Nc1cccc(OC(F)(F)F)c1` [Compound 39a, 3-(Naphthalen-2-yloxy)-N-(3-(trifluoromethoxy)phenyl)propanamide], for which the melting point lay in the range of 82 to 85 °C. Also, the 50% inhibitory concentration (IC50) on human recombinant MDH1 was more than 5 µM. The IC50 on human recombinant MDH2 was more than 5 µM. Further, in the data set with A549 lung cancer cells, the half-inhibitory concentration (IC50) is more than 20 µM. Moreover, the IC50 in the data set on H460 lung cancer cells was more than 20 µM.
`O=C(CCOc1ccc2ccc(Br)cc2c1)Nc1cccc(OC(F)(F)F)c1` [Compound 39b] gave a melting point of 113 to 115 °C. Besides, on human recombinant MDH1, the 50% inhibitory concentration (IC50) came to 1.61 ± 0.25 µM. Also, the IC50 at human recombinant MDH2 is more than 5 µM. Moreover, the concentration for half-maximal inhibition (IC50) in the data set with A549 lung cancer cells turned out to be 14.2 ± 0.2 µM. In addition, the IC50 with H460 lung cancer cells stood at 14.86 ± 0.07 µM.
The like results for `O=C(CCOc1ccc2cc(Br)ccc2c1)Nc1cccc(OC(F)(F)F)c1` [Compound 39c, 3-((6-Bromonaphthalen-2-yl)oxy)-N-(3-(trifluoromethoxy)phenyl)propanamide] were, in that order, 128 to 130 °C, 1.61 ± 0.21 µM, more than 5 µM, 17.7 ± 0.18 µM and 14.8 ± 0.18 µM.
Compound `O=C(CCOc1ccc2cc(F)ccc2c1)Nc1cccc(OC(F)(F)F)c1` [Compound 39d, 3-((6-Fluoronaphthalen-2-yl)oxy)-N-(3-(trifluoromethoxy)phenyl)propanamide] had a melting point of 102 to 104 °C. Moreover, the IC50 on human recombinant MDH1 came to 2.25 ± 0.77 µM. Also, the IC50 at human recombinant MDH2 was 18.3 ± 1.8 µM. Besides, the 50% inhibitory concentration (IC50) in the data set on A549 lung cancer cells is more than 20 µM.
As to `CC(C)(C)CC(C)(C)c1ccc(OCCNS(=O)(=O)c2cccc(OC(F)(F)F)c2)cc1` [Compound 44b, 3-(Trifluoromethoxy)-N-(2-(4-(2,4,4-trimethylpentan-2-yl)phenoxy)ethyl)benzenesulfonamide], the half-maximal inhibitory concentration (IC50) was more than 5 µM at human recombinant MDH2, 7.32 ± 0.02 µM in the data set with A549 lung cancer cells and 7.61 ± 0.24 µM in the data set on H460 lung cancer cells.
Take `CC(C)(C)CC(C)(C)c1ccc(NCCC(=O)Nc2cccc(OC(F)(F)F)c2)cc1` [Compound 56, N-(3-(Trifluoromethoxy)phenyl)-3-((4-(2,4,4-trimethylpentan-2-yl)phenyl)amino)propanamide]: the IC50 on human recombinant MDH1 is 1.79 ± 0.04 µM; on human recombinant MDH2 it was 3.18 ± 0.18 µM; in the data set on A549 lung cancer cells, 6.06 ± 0.01 µM; with H460 lung cancer cells, 5.3 ± 0.01 µM.
Turning to `CC(C)N(CCC(=O)Nc1cccc(OC(F)(F)F)c1)c1ccc(C(C)(C)CC(C)(C)C)cc1` [Compound 57b, 3-(Isopropyl(4-(2,4,4-trimethylpentan-2-yl)phenyl)amino)-N-(3-(trifluoromethoxy)phenyl)propanamide], the IC50 is 1.61 ± 0.02 µM at human recombinant MDH1, 1.09 ± 0.06 µM on human recombinant MDH2, 6.47 ± 0.06 µM in the data set on A549 lung cancer cells and 6.06 ± 0.06 µM in the data set with H460 lung cancer cells.
Taken in the same sequence, the figures for `CC(C)(C)CC(C)(C)c1ccc(N(CCC(=O)Nc2cccc(OC(F)(F)F)c2)C2CCC2)cc1` [Compound 57c, 3-(Cyclobutyl(4-(2,4,4-trimethylpentan-2-yl)phenyl)amino)-N-(3-(trifluoromethoxy)phenyl)propanamide] were 2.16 ± 0.01 µM, 1.18 ± 0.01 µM, 7.24 ± 0.11 µM and 7.11 ± 0.03 µM.
